Results from PubChem BioAssay AID248 (DTP/NCI, 2004).
Inconclusive results and toxic doses are left out. No stated cut-off is given here; in the data, active means T/C of 150% or more; inactive means T/C below 125%.

System: L1210 leukemia ip in BDF1 mice, survival T/C
Assay: NCI In Vivo Anticancer Drug Screen. Data for tumor model L1210 Leukemia (intraperitoneal) in B6D2F1 (BDF1) mice
Details: endpoint: mean survival time, higher = longer survival
Outline: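 Mice bearing the transplanted tumor received compound or vehicle. Survival of the treated group was divided by that of the vehicle-treated control group to give the ratio.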

[1] = dose: 100.0 mg/kg/injection, schedule: Q01DX001 (ip), vehicle: carboxymethylcellulose (CMC)
[2] = dose: 200.0 mg/kg/injection, schedule: Q01DX001 (ip), vehicle: carboxymethylcellulose (CMC)
[3] = dose: 400.0 mg/kg/injection, schedule: Q01DX001 (ip), vehicle: carboxymethylcellulose (CMC)
[4] = dose: 100.0 mg/kg/injection, schedule: Q01DX009 (ip), vehicle: Klucel (hydroxypropylcellulose) (HPC)
[5] = dose: 200.0 mg/kg/injection, schedule: Q01DX009 (ip), vehicle: Klucel (hydroxypropylcellulose) (HPC)
[6] = dose: 400.0 mg/kg/injection, schedule: Q01DX009 (ip), vehicle: Klucel (hydroxypropylcellulose) (HPC)
[7] = dose: 100.0 mg/kg/injection, schedule: Q01DX009 (ip), vehicle: saline
[8] = dose: 100.0 mg/kg/injection, schedule: Q01DX001 (ip), vehicle: saline
[9] = dose: 200.0 mg/kg/injection, schedule: Q01DX001 (ip), vehicle: saline
[10] = dose: 400.0 mg/kg/injection, schedule: Q01DX001 (ip), vehicle: saline

Measured: T/C

OCCNC(=S)SCc1ccccc1
inactive: dose: 100.0 mg/kg/injection, schedule: Q01DX009 (sc), vehicle: olive oil, sesame oil, peanut oil 102 % of control | dose: 100.0 mg/kg/injection, schedule: Q04DX003 (sc), vehicle: olive oil, sesame oil, peanut oil 96 % of control | dose: 200.0 mg/kg/injection, schedule: Q01DX009 (sc), vehicle: olive oil, sesame oil, peanut oil 120 % of control | dose: 200.0 mg/kg/injection, schedule: Q04DX003 (sc), vehicle: olive oil, sesame oil, peanut oil 98 % of control | dose: 400.0 mg/kg/injection, schedule: Q04DX003 (sc), vehicle: olive oil, sesame oil, peanut oil 105 % of control

COc1cc([N+](=O)[O-])c2[nH]c(=O)ccc2c1
inactive: [1] 97 % of control | [2] 94 % of control | [3] 97 % of control

CCOC(=O)C(C)(O)C1(Cl)CCC(C(C)(C)C)CC1 (stereo unspecified)
inactive: dose: 100.0 mg/kg/injection, schedule: Q04DX002 (ip), vehicle: saline 103 % of control | dose: 200.0 mg/kg/injection, schedule: Q04DX002 (ip), vehicle: saline 103 % of control | dose: 400.0 mg/kg/injection, schedule: Q04DX002 (ip), vehicle: saline 100 % of control

CCOc1cc(/C=N/NC(=S)Nc2ccccc2)ccc1O
inactive: [4] 98 % of control | [5] 105 % of control | [6] 94 % of control

NNC(=S)Nc1cccc2ccccc12
inactive: dose: 75.0 mg/kg/injection, schedule: Q01DX001 (ip), vehicle: carboxymethylcellulose (CMC) 93 % of control | dose: 150.0 mg/kg/injection, schedule: Q01DX001 (ip), vehicle: carboxymethylcellulose (CMC) 93 % of control

NNC(=O)Cc1csc2ccccc12
inactive: dose: 55.5 mg/kg/injection, schedule: Q01DX Z (ip), vehicle: carboxymethylcellulose (CMC) 102 % of control | dose: 83.3 mg/kg/injection, schedule: Q01DX Z (ip), vehicle: carboxymethylcellulose (CMC) 114 % of control | dose: 125.0 mg/kg/injection, schedule: Q01DX Z (ip), vehicle: carboxymethylcellulose (CMC) 119 % of control

O=S1(=O)OC(c2ccccc2)(c2ccccc2)c2ccccc21
inactive: [1] 100 % of control | [2] 100 % of control | [3] 100 % of control

CCN(C(=O)c1ccc(C(=O)N(CC)c2cccc(C)c2)cc1)c1cccc(C)c1
inactive: [4] 94 % of control | [5] 89 % of control | [6] 91 % of control

CC1CC(C)(C)N=C(C(C)C)O1 (stereo unspecified)
inactive: dose: 12.5 mg/kg/injection, schedule: Q01DX009 (ip), vehicle: saline 100 % of control | dose: 25.0 mg/kg/injection, schedule: Q01DX009 (ip), vehicle: saline 102 % of control | dose: 50.0 mg/kg/injection, schedule: Q01DX009 (ip), vehicle: saline 98 % of control | dose: 50.0 mg/kg/injection, schedule: Q04DX003 (ip), vehicle: saline with Tween-80 95 % of control | [7] 110 % of control | dose: 100.0 mg/kg/injection, schedule: Q04DX003 (ip), vehicle: saline with Tween-80 93 % of control

O=C(OC1CCC/C=C\CCCC1)c1ccc([N+](=O)[O-])cc1 (stereo unspecified)
inactive: [8] 93 % of control | [9] 98 % of control | [10] 96 % of control

Nc1ncnn1C(=O)NCCCl
inactive: [7] 94 % of control | dose: 100.0 mg/kg/injection, schedule: Q04DX003 (ip), vehicle: saline 101 % of control | dose: 200.0 mg/kg/injection, schedule: Q01DX009 (ip), vehicle: saline 97 % of control | dose: 200.0 mg/kg/injection, schedule: Q04DX003 (ip), vehicle: saline 101 % of control | dose: 400.0 mg/kg/injection, schedule: Q01DX009 (ip), vehicle: saline 97 % of control | dose: 400.0 mg/kg/injection, schedule: Q04DX003 (ip), vehicle: saline 101 % of control

c1ccc2c(C3CSC3)nncc2c1
inactive: [8] 97 % of control | [9] 97 % of control | [10] 94 % of control

CCOC(=O)C12CCC(CC1)C(C(=O)O)C2C(=O)O (stereo unspecified)
inactive: dose: 75.0 mg/kg/injection, schedule: Q04DX002 (ip), vehicle: saline with Tween-80 99 % of control | dose: 150.0 mg/kg/injection, schedule: Q04DX002 (ip), vehicle: saline with Tween-80 89 % of control | dose: 300.0 mg/kg/injection, schedule: Q04DX002 (ip), vehicle: saline with Tween-80 92 % of control
